The values below come from patent publication US9694006B2, “Use of pyrroloquinoline compounds to kill clinically latent microorganisms” (HELPERBY THERAPEUTICS LIMITED, priority 2005, dated 2017).

Experiment [1] concerns E. coli persister bacteria. Nature of the experiment: Bactericidal activity against persistent bacteria (CFU counts), E. coli. The note with it: 25 μg/mL of test compound.
The subject of experiment [2] is Staph. aureus stationary phase bacteria. Nature of the experiment: Bactericidal activity against stationary-phase cultures (CFU counts), Staph. aureus. It is filed as cell-based, Staphylococcus aureus. The conditions noted are these: 5 μg/mL of test compound.

In experiment [1], `Cc1nc2ccc(Oc3ccccc3)cc2c2c1CCN2Cc1ccccc1` [Example 1(h), 1-Benzyl-4-methyl-8-phenoxy-2,3-dihydro-1H-pyrrolo[3,2-c]quinoline] had a log kill of 3.83. As for `COc1cc(OC)c2nc(C)c3c(c2c1)N(c1cccc(Oc2ccccc2)c1)CC3.O=C(O)C(F)(F)F` [Example 1(a), 6,8-Dimethoxy-4-methyl-1-(3-phenoxyphenyl)-2,3-dihydro-1H-pyrrolo[3,2-c]quinoline trifluoroacetate], the log kill in experiment [2] was 3.55.
